Where a SMILES comes first, the peptide text is derived from it. [ ]: non-standard residue; d: D form. Cha = N[C@@H](CC1CCCCC1)C(=O)O; Chg = N[C@H](C(=O)O)C1CCCCC1; Tle = CC(C)(C)[C@H](N)C(=O)O; dDab = NCC[C@@H](N)C(=O)O; Orn = NCCC[C@H](N)C(=O)O; Dab = NCC[C@H](N)C(=O)O
System: human red blood cells (hRBC)
Type: cell-based
Conditions: red cells of human, 1 h
Protocol: The peptides were tested for their hemolytic activity against human red blood cells (hRBC). Fresh hRBC were washed three times with phosphate buffered saline (PBS) and centrifuged for 10 min at 2000×g. Compounds (100 μg/ml) were incubated with 20% hRBC (v/v) for 1 h at 37° C. and shaking at 300 rpm. The final erythrocyte concentration was approximately 0.9×10^9 cells/ml. A value of 0% and 100% cell lyses, respectively, was determined by incubation of hRBC in the presence of PBS containing 0.001% acetic acid and 2.5% Triton X-100 in H2O, respectively. The samples were centrifuged, the supernatants were 8-fold diluted in PBS buffer and the optical densities (OD) were measured at 540 nm. The 100% lyses value (OD540H2O) gave an OD540 of approximately 0.5-1.0. Percent hemolysis was calculated as follows: (OD540peptide/OD540H2O)×100%.

Compound	Hemolysis at 100 μg/ml [%]
CC(C)C[C@@H]1NC(=O)[C@@H]2CCCN2C(=O)[C@H]2CCCN2C(=O)[C@H](CO)NC(=O)[C@H](CO)NC(=O)[C@H](CC2CCCCC2)NC(=O)[C@H](CCN)NC(=O)[C@H](Cc2c[nH]c3ccccc23)NC(=O)[C@H](CCN)NC(=O)[C@@H](CCN)NC(=O)[C@H](CCCCN)NC(=O)[C@H](CCN)NC(=O)[C@H](Cc2ccc(O)cc2)NC(=O)[C@H](Cc2c[nH]c3ccccc23)NC1=O [compound 31, cyclo(-Leu-Trp-Tyr-Dab-Lys-^DDab-Dab-Trp-Dab-Cha-Ser-Ser-^DPro-Pro-)] (cyclo(LWY[Dab]K[dDab][Dab]W[Dab][Cha]SS[dP]P))	1
CC(C)C[C@@H]1NC(=O)[C@@H]2CCCN2C(=O)[C@H]2CCCN2C(=O)[C@H](CO)NC(=O)[C@H](CO)NC(=O)[C@H](CC2CCCCC2)NC(=O)[C@H](CCN)NC(=O)[C@H](Cc2c[nH]c3ccccc23)NC(=O)[C@H](CCN)NC(=O)[C@@H](CCN)NC(=O)[C@H](CCCN)NC(=O)[C@H](CCN)NC(=O)[C@H](Cc2ccc(O)cc2)NC(=O)[C@H](Cc2c[nH]c3ccccc23)NC1=O [compound 32, cyclo(-Leu-Trp-Tyr-Dab-Orn-^DDab-Dab-Trp-Dab-Cha-Ser-Ser-^DPro-Pro-)] (cyclo(LWY[Dab][Orn][dDab][Dab]W[Dab][Cha]SS[dP]P))	3
CC(C)C[C@@H]1NC(=O)[C@@H]2CCCN2C(=O)[C@H]2CCCN2C(=O)[C@H](CO)NC(=O)[C@H](CC(N)=O)NC(=O)[C@H](C(C)(C)C)NC(=O)[C@H](CCN)NC(=O)[C@H](Cc2c[nH]c3ccccc23)NC(=O)[C@H](CCN)NC(=O)[C@@H](CCN)NC(=O)[C@H](CCCN)NC(=O)[C@H](CCN)NC(=O)[C@H](Cc2ccc(O)cc2)NC(=O)[C@H](Cc2ccc(O)cc2)NC1=O [compound 33, cyclo(-Leu-Tyr-Tyr-Dab-Orn-^DDab-Dab-Trp-Dab-tBuGly-Asn-Ser-^DPro-Pro-)] (cyclo(LYY[Dab][Orn][dDab][Dab]W[Dab][Tle]NS[dP]P))	5
CC(C)C[C@@H]1NC(=O)[C@@H]2CCCN2C(=O)[C@H]2CCCN2C(=O)[C@H](CO)NC(=O)[C@H](C)NC(=O)[C@H](C2CCCCC2)NC(=O)[C@H](CCN)NC(=O)[C@H](Cc2c[nH]c3ccccc23)NC(=O)[C@H](CCN)NC(=O)[C@@H](CCN)NC(=O)[C@H](CCCN)NC(=O)[C@H](CCN)NC(=O)[C@H](C(C)(C)C)NC(=O)[C@H](Cc2c[nH]c3ccccc23)NC1=O [compound 34, cyclo(-Leu-Trp-tBuGly-Dab-Orn-^DDab-Dab-Trp-Dab-Chg-Ala-Ser-^DPro-Pro-)] (cyclo(LW[Tle][Dab][Orn][dDab][Dab]W[Dab][Chg]AS[dP]P))	1
CC[C@H](C)[C@@H]1NC(=O)[C@@H]2CCCN2C(=O)[C@H]2CCCN2C(=O)[C@H](CO)NC(=O)[C@H](C)NC(=O)[C@H](CC2CCCCC2)NC(=O)[C@H](CCN)NC(=O)[C@H](Cc2c[nH]c3ccccc23)NC(=O)[C@H](CCN)NC(=O)[C@@H](CCN)NC(=O)[C@H](CCCCN)NC(=O)[C@H](CCN)NC(=O)[C@H](C(C)(C)C)NC(=O)[C@H](Cc2c[nH]c3ccccc23)NC1=O [compound 35, cyclo(-Ile-Trp-tBuGly-Dab-Lys-^DDab-Dab-Trp-Dab-Cha-Ala-Ser-^DPro-Pro-)] (cyclo(IW[Tle][Dab]K[dDab][Dab]W[Dab][Cha]AS[dP]P))	1
CC(C)C[C@@H]1NC(=O)[C@@H]2CCCN2C(=O)[C@H]2CCCN2C(=O)[C@H](CO)NC(=O)[C@H](CO)NC(=O)[C@H](C2CCCCC2)NC(=O)[C@H](CCN)NC(=O)[C@H](Cc2c[nH]c3ccccc23)NC(=O)[C@H](CCN)NC(=O)[C@@H](CCN)NC(=O)[C@H](CCCN)NC(=O)[C@H](CCN)NC(=O)[C@H](C(C)(C)C)NC(=O)[C@H](Cc2c[nH]c3ccccc23)NC1=O [compound 36, cyclo(-Leu-Trp-tBuGly-Dab-Orn-^DDab-Dab-Trp-Dab-Chg-Ser-Ser-^DPro-Pro-)] (cyclo(LW[Tle][Dab][Orn][dDab][Dab]W[Dab][Chg]SS[dP]P))	1

Reference: patent US10370412B2, “Beta-hairpin peptidomimetics” (Polyphor AG, priority 2013, dated 2019)
